From patent publication US20210369615A1, “SOLID ORAL FORMULATIONS OF AMPHOTERICIN B” (iCo Therapeutics Inc., priority 2018, published 2021)
Values joined by “and” are separate entries in the source; they are usually repeats but may differ in a detail not shown here. Equal values may be shown once.

Experiment: Phase 1 single dose escalation pharmacokinetic study, Amphotericin B in human plasma
Type: in vivo
Conditions: for Amphotericin B concentration: 800 mg dose
Method: A phase 1, randomized, double-blind, placebo-controlled, single dose escalation study was performed to evaluate the pharmacokinetic parameters after administration of a single dose of Formula 1A. 100 mg (FIG. 10A), 200 mg (FIG. 10B), 400 mg (FIG. 10C) and 800 mg (FIG. 10D) doses were investigated in this study.
For each dose, AmpB or a placebo was administered, and blood samples were obtained pre-dose, and post-dosing at 0.5 hr, 1 hr, 2 hr, 3 hr, 4 hr, 6 hr, 8 hr, 10 hr, 12 hr, 24 hr, 36 hr, 48 hr, 60 hr, 72 hr, 144 hr, and 192 hr. Pharmacokinetic analysis was performed using Phoenix™ WinNonlin® (Pharsight Corporation). Doses and sampling times were entered as provided by the sponsor. Dose normalised parameters, and descriptive statistics were calculated using Phoenix™ WinNonlin®.
Where Ct is the last measurable concentration and Kel is the elimination rate constant estimated using log-linear regression during the terminal elimination phase. • t½: Elimination half-life, determined by ln(2)/Kel • CL/f: Observed Systemic clearance, calculated as dose/AUC • Vz: Observed Volume of distribution during the terminal phase, calculated as CL/Kel

[1] = single 100 mg dose (Formula 1A), Geometric Mean, N 6
[2] = single 100 mg dose (Formula 1A), Mean, N 6
[3] = single 100 mg dose (Formula 1A), Median, N 6
[4] = single 100 mg dose (Formula 1A), individual subjects A, B, C, D, F, H
[5] = single 200 mg dose (Formula 1A), Geometric Mean, N 6
[6] = single 200 mg dose (Formula 1A), Mean, N 6
[7] = single 200 mg dose (Formula 1A), Median, N 6
[8] = single 200 mg dose (Formula 1A), individual subjects I, 3, K, M, N, P
[9] = single 400 mg dose (Formula 1A), Geometric Mean, N 6
[10] = single 400 mg dose (Formula 1A), Mean, N 6
[11] = single 400 mg dose (Formula 1A), Median, N 6
[12] = single 400 mg dose (Formula 1A), individual subjects R, S, T, U, V, W

SMILES: C[C@@H]1[C@H](O)[C@@H](C)/C=C/C=C/C=C/C=C/C=C/C=C/C=C/[C@H](O[C@@H]2O[C@H](C)[C@@H](O)[C@H](N)[C@@H]2O)C[C@@H]2O[C@](O)(C[C@@H](O)C[C@@H](O)[C@H](O)CC[C@@H](O)C[C@@H](O)CC(=O)O[C@H]1C)C[C@H](O)[C@H]2C(=O)O [Amphotericin B]
- Amphotericin B concentration (nominal hour 0.5, individual subjects): BQL
- Amphotericin B concentration (nominal hour 1, individual subjects): 0.791 ng/mL and BQL (5×)
- Amphotericin B concentration (nominal hour 2, individual subjects): 7.683 ng/mL and 8.234 ng/mL and 2.414 ng/mL and 5.164 ng/mL and 3.206 ng/mL and 4.175 ng/mL
- Amphotericin B concentration (nominal hour 4, individual subjects): 16.397 ng/mL and 28.318 ng/mL and 18.814 ng/mL and 17.942 ng/mL and 23.486 ng/mL and 20.176 ng/mL
- Amphotericin B concentration (nominal hour 6, individual subjects): 29.902 ng/mL and 40.067 ng/mL and 30.628 ng/mL and 24.140 ng/mL and 33.962 ng/mL and 31.375 ng/mL
- Amphotericin B concentration (nominal hour 8, individual subjects): 22.535 ng/mL and 31.543 ng/mL and 30.838 ng/mL and 27.279 ng/mL and 39.722 ng/mL and 22.816 ng/mL
- Amphotericin B concentration (nominal hour 10, individual subjects): 21.595 ng/mL and 29.990 ng/mL and 25.996 ng/mL and 32.914 ng/mL and 42.805 ng/mL and 22.226 ng/mL
- Amphotericin B concentration (nominal hour 12, individual subjects): 21.001 ng/mL and 31.865 ng/mL and 22.810 ng/mL and 27.866 ng/mL and 40.021 ng/mL and 21.390 ng/mL
- Amphotericin B concentration (nominal hour 24, individual subjects): 16.218 ng/mL and 14.674 ng/mL and 23.607 ng/mL and 14.816 ng/mL and 19.124 ng/mL and 26.064 ng/mL
- Amphotericin B concentration (nominal hour 36, individual subjects): 10.661 ng/mL and 16.074 ng/mL and 13.715 ng/mL and 9.365 ng/mL and 12.504 ng/mL and 19.218 ng/mL
- Amphotericin B concentration (nominal hour 48, individual subjects): 6.472 ng/mL and 12.880 ng/mL and 12.291 ng/mL and 7.395 ng/mL and 8.947 ng/mL and 13.166 ng/mL
- Amphotericin B concentration (nominal hour 63, individual subjects): 6.398 ng/mL and 10.642 ng/mL and 7.859 ng/mL and 3.935 ng/mL and 6.865 ng/mL and 9.972 ng/mL
- Amphotericin B concentration (nominal hour 72, individual subjects): 5.044 ng/mL and 10.165 ng/mL and 6.793 ng/mL and 2.412 ng/mL and 3.808 ng/mL and 8.297 ng/mL
- Amphotericin B concentration (nominal hour 144, individual subjects): 0.539 ng/mL and 2.254 ng/mL and 1.380 ng/mL and 0.329 ng/mL and 0.518 ng/mL and 1.905 ng/mL
- Amphotericin B concentration (nominal hour 192, individual subjects): BQL (3×) and 0.726 ng/mL and 0.132 ng/mL and 0.243 ng/mL
- Amphotericin B concentration (pre-dose, individual subjects): BQL
- % AUCexp [1]: 16.37%
- AUCO-inf [1]: 1155.07 ng·h/mL
- AUCO-t [1]: 865.75 ng·h/mL
- CL/F [1]: 86574.82 mL/h
- Cmax [1]: 29.45 ng/mL
- Kel [1]: 0.02 h⁻¹
- Tmax [1]: 6.00 h
- T½ [1]: 28.42 h
- V/F [1]: 3549117.10 mL
- % AUCexp [2]: 23.01%
- AUCO-inf [2]: 1329.45 ng·h/mL
- AUCO-t [2]: 912.51 ng·h/mL
- CL/F [2]: 96064.72 mL/h
- Cmax [2]: 30.22 ng/mL
- Kel [2]: 0.03 h⁻¹
- Tmax [2]: 6.00 h
- T½ [2]: 31.80 h
- V/F [2]: 3656853.27 mL
- % AUCexp [3]: 16.74%
- AUCO-inf [3]: 1029.80 ng·h/mL
- AUCO-t [3]: 759.65 ng·h/mL
- CL/F [3]: 102549.85 mL/h
- Cmax [3]: 28.02 ng/mL
- Kel [3]: 0.03 h⁻¹
- Tmax [3]: 6.00 h
- T½ [3]: 27.27 h
- V/F [3]: 3591414.60 mL
- % AUCexp [4]: 12.17% and 44.38% and 21.32% and 9.08% and 47.20% and 3.91%
- AUCO-inf [4]: 723.90 ng·h/mL and 1362.29 ng·h/mL and 1267.06 ng·h/mL and 788.16 ng·h/mL and 3042.77 ng·h/mL and 792.54 ng·h/mL
- AUCO-t [4]: 635.82 ng·h/mL and 757.71 ng·h/mL and 996.95 ng·h/mL and 716.57 ng·h/mL and 1606.43 ng·h/mL and 761.59 ng·h/mL
- CL/F [4]: 138140.40 mL/h and 73405.78 mL/h and 78922.85 mL/h and 126877.64 mL/h and 32864.80 mL/h and 126176.85 mL/h
- Cmax [4]: 22.66 ng/mL and 24.41 ng/mL and 30.05 ng/mL and 25.98 ng/mL and 43.57 ng/mL and 34.67 ng/mL
- Kel [4]: 0.03 1/hr and 0.01 1/hr (2×) and 0.02 1/hr and 0.04 1/hr and 0.05 1/hr
- Tmax [4]: 6.00 h
- T½ [4]: 22.60 h and 47.37 h and 31.94 h and 19.37 h and 55.13 h and 14.42 h
- V/F [4]: 4503070.74 mL and 5016960.70 mL and 3637239.70 mL and 3545589.51 mL and 2613781.85 mL and 2624477.13 mL
- % AUCexp [5]: 13.76%
- AUCO-inf [5]: 1040.21 ng·h/mL
- AUCO-t [5]: 822.65 ng·h/mL
- CL/F [5]: 192268.01 mL/h
- Cmax [5]: 28.66 ng/mL
- Kel [5]: 0.03 h⁻¹
- Tmax [5]: 6.29 h
- T½ [5]: 25.39 h
- V/F [5]: 7043125.41 mL
- % AUCexp [6]: 19.01%
- AUCO-inf [6]: 1066.59 ng·h/mL
- AUCO-t [6]: 856.21 ng·h/mL
- CL/F [6]: 197223.58 mL/h
- Cmax [6]: 29.70 ng/mL
- Kel [6]: 0.03 h⁻¹
- Tmax [6]: 6.33 h
- T½ [6]: 29.35 h
- V/F [6]: 8022007.31 mL
- % AUCexp [7]: 15.83%
- AUCO-inf [7]: 1061.32 ng·h/mL
- AUCO-t [7]: 804.02 ng·h/mL
- CL/F [7]: 189651.36 mL/h
- Cmax [7]: 28.62 ng/mL
- Kel [7]: 0.03 h⁻¹
- Tmax [7]: 6.00 h
- T½ [7]: 24.59 h
- V/F [7]: 7174305.73 mL
- % AUCexp [8]: 51.97% and 15.07% and 6.50% and 16.58% and 4.05% and 19.85%
- AUCO-inf [8]: 1241.16 ng·h/mL and 1146.01 ng·h/mL and 1438.52 ng·h/mL and 737.08 ng·h/mL and 860.11 ng·h/mL and 976.64 ng·h/mL
- AUCO-t [8]: 596.14 ng·h/mL and 973.27 ng·h/mL and 1344.94 ng·h/mL and 614.86 ng·h/mL and 825.30 ng·h/mL and 782.74 ng·h/mL
- CL/F [8]: 161138.94 mL/h and 174518.59 mL/h and 139032.26 mL/h and 271340.46 mL/h and 232527.11 mL/h and 204784.12 mL/h
- Cmax [8]: 18.77 ng/mL and 27.35 ng/mL and 42.46 ng/mL and 23.41 ng/mL and 36.31 ng/mL and 29.90 ng/mL
- Kel [8]: 0.01 1/hr and 0.03 1/hr (3×) and 0.05 1/hr (2×)
- Tmax [8]: 6.00 h and 8.00 h
- T½ [8]: 68.82 h and 24.69 h and 15.32 h and 24.50 h and 15.26 h and 27.53 h
- V/F [8]: 15999011.64 mL and 6215853.68 mL and 3073693.76 mL and 9591266.45 mL and 5119460.58 mL and 8132757.78 mL
- % AUCexp [9]: 25.23%
- AUCO-inf [9]: 1799.36 ng·h/mL
- AUCO-t [9]: 1045.59 ng·h/mL
- CL/F [9]: 222300.98 mL/h
- Cmax [9]: 28.16 ng/mL
- Kel [9]: 0.02 h⁻¹
- Tmax [9]: 7.11 h
- T½ [9]: 42.43 h
- V/F [9]: 13606337.94 mL
- % AUCexp [10]: 36.21%
- AUCO-inf [10]: 2494.19 ng·h/mL
- AUCO-t [10]: 1148.77 ng·h/mL
- CL/F [10]: 300584.11 mL/h
- Cmax [10]: 29.04 ng/mL
- Kel [10]: 0.02 h⁻¹
- Tmax [10]: 7.33 h
- T½ [10]: 57.04 h
- V/F [10]: 15172419.27 mL
- % AUCexp [11]: 33.41%
- AUCO-inf [11]: 2029.33 ng·h/mL
- AUCO-t [11]: 1089.21 ng·h/mL
- CL/F [11]: 197696.44 mL/h
- Cmax [11]: 28.44 ng/mL
- Kel [11]: 0.02 h⁻¹
- Tmax [11]: 6.00 h
- T½ [11]: 39.03 h
- V/F [11]: 12667205.14 mL
- % AUCexp [12]: 73.99% and 4.55% and 35.27% and 11.36% and 31.55% and 60.51%
- AUCO-inf [12]: 7138.99 ng·h/mL and 981.05 ng·h/mL and 1918.71 ng·h/mL and 520.98 ng·h/mL and 2265.43 ng·h/mL and 2139.96 ng·h/mL
- AUCO-t [12]: 1856.79 ng·h/mL and 936.40 ng·h/mL and 1242.03 ng·h/mL and 461.79 ng·h/mL and 1550.60 ng·h/mL and 845.03 ng·h/mL
- CL/F [12]: 56030.30 mL/h and 407726.35 mL/h and 208473.83 mL/h and 767787.87 mL/h and 176567.28 mL/h and 186919.05 mL/h
- Cmax [12]: 41.12 ng/mL and 26.38 ng/mL and 30.49 ng/mL and 21.86 ng/mL and 34.26 ng/mL and 20.15 ng/mL
- Kel [12]: 0.00 1/hr and 0.05 1/hr and 0.02 1/hr (2×) and 0.03 1/hr and 0.01 1/hr
- Tmax [12]: 10.00 h and 6.00 h
- T½ [12]: 142.05 h and 13.66 h and 46.06 h and 24.18 h and 32.01 h and 84.28 h
- V/F [12]: 11482617.37 mL and 8037364.81 mL and 13851792.91 mL and 26779550.10 mL and 8154849.30 mL and 22728341.15 mL
